Tested on: 519858-162-T-J1-PDC complex spheroid viability
Experiment: Anticancer human tumor 519858-162-T-J1-PDC patient-derived colon adenocarcinoma cell line growth inhibition [GQUAD]
Settings: for IC50: curve of first compound; for viability, T/C: stronger effect = lower value
Outline: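 Viability of tumor cells grown as complex spheroids with endothelial and stromal cells, exposed to drug combinations. Top concentration at or near clinical Cmax (else 10 microM), diluted in half-log increments.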

[1] = second compound 0.0316 µM, first compound 0.0316 µM
[2] = second compound 0.0316 µM, first compound 0.1 µM
[3] = second compound 0.0316 µM, first compound 0.316 µM
[4] = second compound 0.0316 µM, first compound 1 µM
[5] = second compound 0.0316 µM, first compound 3.16 µM
[6] = second compound 0.0316 µM, first compound 10 µM
[7] = second compound 0.1 µM, first compound 0.0316 µM
[8] = second compound 0.1 µM, first compound 0.1 µM
[9] = second compound 0.1 µM, first compound 0.316 µM
[10] = second compound 0.1 µM, first compound 1 µM
[11] = second compound 0.1 µM, first compound 3.16 µM
[12] = second compound 0.1 µM, first compound 10 µM
[13] = second compound 0.316 µM, first compound 0.0316 µM
[14] = second compound 0.316 µM, first compound 0.1 µM
[15] = second compound 0.316 µM, first compound 0.316 µM
[16] = second compound 0.316 µM, first compound 1 µM
[17] = second compound 0.316 µM, first compound 3.16 µM
[18] = second compound 0.316 µM, first compound 10 µM
[19] = second compound 1 µM, first compound 0.0316 µM
[20] = second compound 1 µM, first compound 0.1 µM
[21] = second compound 1 µM, first compound 0.316 µM
[22] = second compound 1 µM, first compound 1 µM
[23] = second compound 1 µM, first compound 3.16 µM
[24] = second compound 1 µM, first compound 10 µM
[25] = second compound 3.16 µM, first compound 0.0316 µM
[26] = second compound 3.16 µM, first compound 0.1 µM
[27] = second compound 3.16 µM, first compound 0.316 µM
[28] = second compound 3.16 µM, first compound 1 µM
[29] = second compound 3.16 µM, first compound 3.16 µM
[30] = second compound 3.16 µM, first compound 10 µM
[31] = second compound 10 µM, first compound 0.0316 µM
[32] = second compound 10 µM, first compound 0.1 µM
[33] = second compound 10 µM, first compound 0.316 µM
[34] = second compound 10 µM, first compound 1 µM
[35] = second compound 10 µM, first compound 3.16 µM
[36] = second compound 10 µM, first compound 10 µM
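Wherever viability, T/C is given: 100% = DMSO vehicle control viability.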

`C#Cc1c(F)ccc2cc(O)cc(-c3ncc4c(N5CC6CCC(C5)N6)nc(OCC56CCCN5CC(F)C6)nc4c3F)c12` (stereo not given) + Cc1[nH]c2ccc(F)cc2c1-c1nc2c3cccnc3c3ncccc3c2[nH]1 was tested, and the IC50 (second compound 0.0316 µM) was > 10 µM, the IC50 (second compound 0.1 µM) was > 10 µM and the IC50 (second compound 0.316 µM) was > 10 µM. For the same molecule, the IC50 (second compound 1 µM) was > 10 µM, the IC50 (second compound 3.16 µM) was > 10 µM and the IC50 (second compound 10 µM) was > 10 µM. It also gave a viability, T/C [1] of 103%, a viability, T/C [2] of 82.9% and a viability, T/C [3] of 92%. For the same molecule, the viability, T/C [4] was 113%, the viability, T/C [5] was 72.3% and the viability, T/C [6] was 73.2%. The viability, T/C [7] was 111%, the viability, T/C [8] was 85.9% and the viability, T/C [9] was 126%. The viability, T/C [10] was 83.9%, the viability, T/C [11] was 68.3% and the viability, T/C [12] was 73%. For the same molecule, the viability, T/C [13] was 104%, the viability, T/C [14] was 112% and the viability, T/C [15] was 87.5%. The viability, T/C [16] was 75.7%, the viability, T/C [17] was 106% and the viability, T/C [18] was 66.1%. The viability, T/C [19] was 79.4%, the viability, T/C [20] was 73.9% and the viability, T/C [21] was 104%. It also gave a viability, T/C [22] of 60.4%, a viability, T/C [23] of 106% and a viability, T/C [24] of 58.5%. It also gave a viability, T/C [25] of 86.5%, a viability, T/C [26] of 80% and a viability, T/C [27] of 79.7%. For the same molecule, the viability, T/C [28] was 52.6%, the viability, T/C [29] was 76.7% and the viability, T/C [30] was 80.3%. It also gave a viability, T/C [31] of 78.3%, a viability, T/C [32] of 83.2% and a viability, T/C [33] of 76.3%. It also gave a viability, T/C [34] of 63.5%, a viability, T/C [35] of 52.3% and a viability, T/C [36] of 65.6%.
`CC(=O)O[C@H]1C(=O)[C@@]2(C)[C@H]([C@H](OC(=O)c3ccccc3)[C@]3(O)C[C@H](OC(=O)[C@H](O)[C@@H](NC(=O)c4ccccc4)c4ccccc4)C(C)=C1C3(C)C)[C@]1(OC(C)=O)CO[C@@H]1C[C@@H]2O` + Cc1[nH]c2ccc(F)cc2c1-c1nc2c3cccnc3c3ncccc3c2[nH]1 was tested, and the IC50 (second compound 0.0316 µM) was > 10 µM, the IC50 (second compound 0.1 µM) was > 10 µM and the IC50 (second compound 0.316 µM) was > 10 µM. The IC50 (second compound 1 µM) was > 10 µM, the IC50 (second compound 3.16 µM) was > 10 µM and the IC50 (second compound 10 µM) was > 10 µM. For the same molecule, the viability, T/C [1] was 80.1%, the viability, T/C [2] was 136% and the viability, T/C [3] was 103%. It also gave a viability, T/C [4] of 82.4%, a viability, T/C [5] of 71.2% and a viability, T/C [6] of 79.7%. It also gave a viability, T/C [7] of 87.8%, a viability, T/C [8] of 97.5% and a viability, T/C [9] of 109%. For the same molecule, the viability, T/C [10] was 98.9%, the viability, T/C [11] was 97% and the viability, T/C [12] was 116%. It also gave a viability, T/C [13] of 91.1%, a viability, T/C [14] of 78% and a viability, T/C [15] of 70.8%. It also gave a viability, T/C [16] of 72.3%, a viability, T/C [17] of 108% and a viability, T/C [18] of 126%. For the same molecule, the viability, T/C [19] was 116%, the viability, T/C [20] was 62.5% and the viability, T/C [21] was 58.5%. For the same molecule, the viability, T/C [22] was 89.3%, the viability, T/C [23] was 69.4% and the viability, T/C [24] was 109%. For the same molecule, the viability, T/C [25] was 67.5%, the viability, T/C [26] was 77.5% and the viability, T/C [27] was 51.1%. The viability, T/C [28] was 106%, the viability, T/C [29] was 77.8% and the viability, T/C [30] was 55.5%. The viability, T/C [31] was 54.5%, the viability, T/C [32] was 93.7% and the viability, T/C [33] was 68.1%. It also gave a viability, T/C [34] of 74.4%, a viability, T/C [35] of 75.5% and a viability, T/C [36] of 104%.
With `COc1cccc2c1C(=O)c1c(O)c3c(c(O)c1C2=O)CC(O)(C(=O)CO)CC3OC1CC(N)C(O)C(C)O1` (stereo not given) + Cc1[nH]c2ccc(F)cc2c1-c1nc2c3cccnc3c3ncccc3c2[nH]1 the IC50 (second compound 0.0316 µM) was > 10 µM, the IC50 (second compound 0.1 µM) was > 10 µM and the IC50 (second compound 0.316 µM) was > 10 µM. For the same molecule, the IC50 (second compound 1 µM) was > 10 µM, the IC50 (second compound 3.16 µM) was > 10 µM and the IC50 (second compound 10 µM) was > 10 µM. It also gave a viability, T/C [1] of 117%, a viability, T/C [2] of 126% and a viability, T/C [3] of 95.3%. The viability, T/C [4] was 81.9%, the viability, T/C [5] was 82.1% and the viability, T/C [6] was 75.3%. It also gave a viability, T/C [7] of 104%, a viability, T/C [8] of 122% and a viability, T/C [9] of 98.5%. For the same molecule, the viability, T/C [10] was 80.1%, the viability, T/C [11] was 61.3% and the viability, T/C [12] was 62.1%. It also gave a viability, T/C [13] of 82.3%, a viability, T/C [14] of 95.4% and a viability, T/C [15] of 121%. For the same molecule, the viability, T/C [16] was 78.6%, the viability, T/C [17] was 72.9% and the viability, T/C [18] was 50.6%. It also gave a viability, T/C [19] of 109%, a viability, T/C [20] of 98.6% and a viability, T/C [21] of 109%. The viability, T/C [22] was 70.2%, the viability, T/C [23] was 69.9% and the viability, T/C [24] was 51.9%. The viability, T/C [25] was 96.3%, the viability, T/C [26] was 72.7% and the viability, T/C [27] was 78.3%. It also gave a viability, T/C [28] of 68.2%, a viability, T/C [29] of 62.4% and a viability, T/C [30] of 72.9%. The viability, T/C [31] was 47%, the viability, T/C [32] was 79.9% and the viability, T/C [33] was 60.7%. It also gave a viability, T/C [34] of 51.4%, a viability, T/C [35] of 44% and a viability, T/C [36] of 78.1%.
`Nc1ccn(C2OC(CO)C(O)C2(F)F)c(=O)n1` (stereo not given) + Cc1[nH]c2ccc(F)cc2c1-c1nc2c3cccnc3c3ncccc3c2[nH]1 was tested, and the IC50 (second compound 0.0316 µM) was > 10 µM, the IC50 (second compound 0.1 µM) was > 10 µM and the IC50 (second compound 0.316 µM) was > 10 µM. For the same molecule, the IC50 (second compound 1 µM) was > 10 µM, the IC50 (second compound 3.16 µM) was > 10 µM and the IC50 (second compound 10 µM) was > 10 µM. For the same molecule, the viability, T/C [1] was 131%, the viability, T/C [2] was 69.3% and the viability, T/C [3] was 89.4%. For the same molecule, the viability, T/C [4] was 80.1%, the viability, T/C [5] was 83% and the viability, T/C [6] was 72.3%. The viability, T/C [7] was 85.9%, the viability, T/C [8] was 143% and the viability, T/C [9] was 70.5%. It also gave a viability, T/C [10] of 71%, a viability, T/C [11] of 82.9% and a viability, T/C [12] of 102%. The viability, T/C [13] was 93.3%, the viability, T/C [14] was 116% and the viability, T/C [15] was 78.5%. For the same molecule, the viability, T/C [16] was 57.9%, the viability, T/C [17] was 70% and the viability, T/C [18] was 69.8%. It also gave a viability, T/C [19] of 90.7%, a viability, T/C [20] of 81.9% and a viability, T/C [21] of 89.5%. The viability, T/C [22] was 76.9%, the viability, T/C [23] was 84.2% and the viability, T/C [24] was 73.7%. The viability, T/C [25] was 54.4%, the viability, T/C [26] was 76.8% and the viability, T/C [27] was 61.9%. It also gave a viability, T/C [28] of 47.2%, a viability, T/C [29] of 95.4% and a viability, T/C [30] of 60.5%. It also gave a viability, T/C [31] of 82.4%, a viability, T/C [32] of 73.5% and a viability, T/C [33] of 73%. For the same molecule, the viability, T/C [34] was 68.9%, the viability, T/C [35] was 108% and the viability, T/C [36] was 54.2%.
`O=c1[nH]cc(F)c(=O)[nH]1` + Cc1[nH]c2ccc(F)cc2c1-c1nc2c3cccnc3c3ncccc3c2[nH]1 was tested, and the IC50 (second compound 0.0316 µM) was > 10 µM, the IC50 (second compound 0.1 µM) was > 10 µM and the IC50 (second compound 0.316 µM) was > 10 µM. The IC50 (second compound 1 µM) was > 10 µM, the IC50 (second compound 3.16 µM) was > 10 µM and the IC50 (second compound 10 µM) was > 10 µM. It also gave a viability, T/C [1] of 138%, a viability, T/C [2] of 85.8% and a viability, T/C [3] of 80.8%. It also gave a viability, T/C [4] of 98.3%, a viability, T/C [5] of 81.7% and a viability, T/C [6] of 87.3%. For the same molecule, the viability, T/C [7] was 116%, the viability, T/C [8] was 103% and the viability, T/C [9] was 94%. For the same molecule, the viability, T/C [10] was 98.6%, the viability, T/C [11] was 70.6% and the viability, T/C [12] was 84.9%. The viability, T/C [13] was 86%, the viability, T/C [14] was 103% and the viability, T/C [15] was 87.4%. For the same molecule, the viability, T/C [16] was 83.7%, the viability, T/C [17] was 86.5% and the viability, T/C [18] was 74.9%. For the same molecule, the viability, T/C [19] was 101%, the viability, T/C [20] was 83.2% and the viability, T/C [21] was 75.8%. The viability, T/C [22] was 65.7%, the viability, T/C [23] was 60.6% and the viability, T/C [24] was 89.5%. The viability, T/C [25] was 57%, the viability, T/C [26] was 69% and the viability, T/C [27] was 65.7%. It also gave a viability, T/C [28] of 75.5%, a viability, T/C [29] of 71.3% and a viability, T/C [30] of 63%. It also gave a viability, T/C [31] of 81%, a viability, T/C [32] of 78.1% and a viability, T/C [33] of 59.6%. The viability, T/C [34] was 71.9%, the viability, T/C [35] was 83.1% and the viability, T/C [36] was 55.6%.
